Biological target: T1, subcomplex nb8mΔ (Yarrowia lipolytica, UniProt Q9B6E8+Q9UUT7+Q9UUU1+Q9UUU2)
T1 construct: gene nucm; complex I subcomplex lacking 14 subunits of the PD module (incl. ND4, ND5, NB8M); about 680 kDa; C-terminal His tag on NUGM; purified, asolectin proteoliposomes; with NADH-ubiquinone oxidoreductase 75 kDa subunit; NADH-ubiquinone oxidoreductase 30 kDa subunit; NADH-ubiquinone oxidoreductase 24 kDa subunit; NADH-ubiquinone oxidoreductase 23 kDa subunit; NADH-ubiquinone oxidoreductase chain 2; NADH-ubiquinone oxidoreductase chain 3; NADH-ubiquinone oxidoreductase chain 6; NADH-ubiquinone oxidoreductase chain 4L
Assay: NADH:DBQ oxidoreductase activity, NADH oxidation
Format: biochemical
Details: 100 µM DBQ, 100 µM NADH, pH 7.2, 30 °C, proteoliposomes

Row | SMILES | NADH:DBQ oxidoreductase activity, NADH oxidation (electron acceptor) | NADH:DBQ oxidoreductase activity, NADH oxidation (electron donor)
1 | CCCCCCCCCCC1=C(C)C(=O)C(OC)=C(OC)C1=O [DBQ, decylubiquinone] | addition of NADH and the ubiquinone analogue DBQ to subcomplex nb8mΔ proteoliposomes | –
2 | NC(=O)C1=CN([C@@H]2O[C@H](COP(=O)(O)OP(=O)(O)OC[C@H]3O[C@@H](n4cnc5c(N)ncnc54)[C@H](O)[C@@H]3O)[C@@H](O)[C@H]2O)C=CC1 [NADH] | – | addition of NADH and the ubiquinone analogue DBQ to subcomplex nb8mΔ proteoliposomes

Reference: publication PMC3160329, “Functional Dissection of the Proton Pumping Modules of Mitochondrial Complex I” (PLoS Biology, 2011)
